Tested on: 186277-243-T-J2-PDC complex spheroid viability
Test: Anticancer human tumor 186277-243-T-J2-PDC patient-derived colon adenocarcinoma cell line growth inhibition [GQUAD]
Details: for IC50: curve of first compound; for viability, T/C: stronger effect = lower value
Procedure, shortened: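 Tumor cells were grown as complex spheroids with HUVEC endothelial cells and mesenchymal stem cells as stroma. G-quadruplex stabilizers were combined with targeted agents over half-log dilutions from near the clinical Cmax, or from 10 microM.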

[1] = second compound 0.0316 µM, first compound 0.0316 µM
[2] = second compound 0.0316 µM, first compound 0.1 µM
[3] = second compound 0.0316 µM, first compound 0.316 µM
[4] = second compound 0.0316 µM, first compound 1 µM
[5] = second compound 0.0316 µM, first compound 3.16 µM
[6] = second compound 0.0316 µM, first compound 10 µM
[7] = second compound 0.1 µM, first compound 0.0316 µM
[8] = second compound 0.1 µM, first compound 0.1 µM
[9] = second compound 0.1 µM, first compound 0.316 µM
[10] = second compound 0.1 µM, first compound 1 µM
[11] = second compound 0.1 µM, first compound 3.16 µM
[12] = second compound 0.1 µM, first compound 10 µM
[13] = second compound 0.316 µM, first compound 0.0316 µM
[14] = second compound 0.316 µM, first compound 0.1 µM
[15] = second compound 0.316 µM, first compound 0.316 µM
[16] = second compound 0.316 µM, first compound 1 µM
[17] = second compound 0.316 µM, first compound 3.16 µM
[18] = second compound 0.316 µM, first compound 10 µM
[19] = second compound 1 µM, first compound 0.0316 µM
[20] = second compound 1 µM, first compound 0.1 µM
[21] = second compound 1 µM, first compound 0.316 µM
[22] = second compound 1 µM, first compound 1 µM
[23] = second compound 1 µM, first compound 3.16 µM
[24] = second compound 1 µM, first compound 10 µM
[25] = second compound 3.16 µM, first compound 0.0316 µM
[26] = second compound 3.16 µM, first compound 0.1 µM
[27] = second compound 3.16 µM, first compound 0.316 µM
[28] = second compound 3.16 µM, first compound 1 µM
[29] = second compound 3.16 µM, first compound 3.16 µM
[30] = second compound 3.16 µM, first compound 10 µM
[31] = second compound 10 µM, first compound 0.0316 µM
[32] = second compound 10 µM, first compound 0.1 µM
[33] = second compound 10 µM, first compound 0.316 µM
[34] = second compound 10 µM, first compound 1 µM
[35] = second compound 10 µM, first compound 3.16 µM
[36] = second compound 10 µM, first compound 10 µM
[37] = second compound 0.0316 µM, first compound 0.000999 µM
[38] = second compound 0.0316 µM, first compound 0.00316 µM
[39] = second compound 0.0316 µM, first compound 0.00999 µM
[40] = second compound 0.0316 µM, first compound 0.0999 µM
[41] = second compound 0.1 µM, first compound 0.000999 µM
[42] = second compound 0.1 µM, first compound 0.00316 µM
[43] = second compound 0.1 µM, first compound 0.00999 µM
[44] = second compound 0.1 µM, first compound 0.0999 µM
[45] = second compound 0.316 µM, first compound 0.000999 µM
[46] = second compound 0.316 µM, first compound 0.00316 µM
[47] = second compound 0.316 µM, first compound 0.00999 µM
[48] = second compound 0.316 µM, first compound 0.0999 µM
[49] = second compound 1 µM, first compound 0.000999 µM
[50] = second compound 1 µM, first compound 0.00316 µM
[51] = second compound 1 µM, first compound 0.00999 µM
[52] = second compound 1 µM, first compound 0.0999 µM
[53] = second compound 3.16 µM, first compound 0.000999 µM
[54] = second compound 3.16 µM, first compound 0.00316 µM
[55] = second compound 3.16 µM, first compound 0.00999 µM
[56] = second compound 3.16 µM, first compound 0.0999 µM
[57] = second compound 10 µM, first compound 0.000999 µM
[58] = second compound 10 µM, first compound 0.00316 µM
[59] = second compound 10 µM, first compound 0.00999 µM
[60] = second compound 10 µM, first compound 0.0999 µM
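Note: spheroids exposed to drugs for 7 days.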
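Throughout, for viability, T/C: 100% = DMSO vehicle control viability.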

In the case of C=CC(=O)N1CCN(c2nc(=O)n(-c3c(C)ccnc3C(C)C)c3nc(-c4c(O)cccc4F)c(F)cc23)C(C)C1 (stereo not drawn) + Cc1[nH]c2ccc(F)cc2c1-c1nc2c3cccnc3c3ncccc3c2[nH]1, the IC50 (second compound 0.0316 µM) is reported as > 10 µM, the IC50 (second compound 0.1 µM) is reported as > 10 µM and the IC50 (second compound 0.316 µM) is reported as > 10 µM. The IC50 (second compound 1 µM) was > 10 µM, the IC50 (second compound 3.16 µM) was > 10 µM and the IC50 (second compound 10 µM) was > 10 µM. It also gave a viability, T/C [1] of 92.4%, a viability, T/C [2] of 87.1% and a viability, T/C [3] of 92.5%. It also gave a viability, T/C [4] of 85.2%, a viability, T/C [5] of 107% and a viability, T/C [6] of 94.9%. It also gave a viability, T/C [7] of 95.7%, a viability, T/C [8] of 97% and a viability, T/C [9] of 101%. The viability, T/C [10] was 78.5%, the viability, T/C [11] was 113% and the viability, T/C [12] was 92.8%. The viability, T/C [13] was 98.9%, the viability, T/C [14] was 110% and the viability, T/C [15] was 89.3%. The viability, T/C [16] was 91.3%, the viability, T/C [17] was 97.2% and the viability, T/C [18] was 88.7%. It also gave a viability, T/C [19] of 98.1%, a viability, T/C [20] of 88.4% and a viability, T/C [21] of 107%. The viability, T/C [22] was 87.6%, the viability, T/C [23] was 111% and the viability, T/C [24] was 96.3%. The viability, T/C [25] was 84%, the viability, T/C [26] was 96.2% and the viability, T/C [27] was 92%. For the same compound, the viability, T/C [28] was 96%, the viability, T/C [29] was 108% and the viability, T/C [30] was 96%. For the same compound, the viability, T/C [31] was 94%, the viability, T/C [32] was 99.7% and the viability, T/C [33] was 99.1%. For the same compound, the viability, T/C [34] was 109%, the viability, T/C [35] was 102% and the viability, T/C [36] was 80.8%.
CC[C@@]1(O)C(=O)OCc2c1cc1n(c2=O)Cc2cc3c(CN(C)C)c(O)ccc3nc2-1 + Cc1[nH]c2ccc(F)cc2c1-c1nc2c3cccnc3c3ncccc3c2[nH]1 was tested, and the IC50 (second compound 0.0316 µM) was > 0.316 µM, the IC50 (second compound 0.1 µM) was > 0.316 µM and the IC50 (second compound 0.316 µM) was > 0.316 µM. The IC50 (second compound 1 µM) was > 0.316 µM, the IC50 (second compound 3.16 µM) was > 0.316 µM and the IC50 (second compound 10 µM) was > 0.316 µM. For the same compound, the viability, T/C [37] was 97%, the viability, T/C [38] was 91.6% and the viability, T/C [39] was 88.2%. For the same compound, the viability, T/C [1] was 93.9%, the viability, T/C [40] was 68.2% and the viability, T/C [3] was 51.6%. It also gave a viability, T/C [41] of 111%, a viability, T/C [42] of 106% and a viability, T/C [43] of 94.2%. The viability, T/C [7] was 93.7%, the viability, T/C [44] was 77.9% and the viability, T/C [9] was 59.6%. It also gave a viability, T/C [45] of 96.3%, a viability, T/C [46] of 95% and a viability, T/C [47] of 92.8%. The viability, T/C [13] was 89.8%, the viability, T/C [48] was 78% and the viability, T/C [15] was 60.7%. It also gave a viability, T/C [49] of 95.3%, a viability, T/C [50] of 101% and a viability, T/C [51] of 94.8%. It also gave a viability, T/C [19] of 103%, a viability, T/C [52] of 77.7% and a viability, T/C [21] of 55.7%. For the same compound, the viability, T/C [53] was 118%, the viability, T/C [54] was 94.1% and the viability, T/C [55] was 109%. The viability, T/C [25] was 92.9%, the viability, T/C [56] was 67.4% and the viability, T/C [27] was 57.4%. It also gave a viability, T/C [57] of 87.9%, a viability, T/C [58] of 99.9% and a viability, T/C [59] of 86.8%. It also gave a viability, T/C [31] of 87.3%, a viability, T/C [60] of 79.8% and a viability, T/C [33] of 56.1%.
For Cc1cccc(N(C)C(=O)C2C(O)CCN2c2nc(C)cc(C(F)(F)F)c2C#N)c1 (stereo not drawn) + Cc1[nH]c2ccc(F)cc2c1-c1nc2c3cccnc3c3ncccc3c2[nH]1, the IC50 (second compound 0.0316 µM) was > 10 µM, the IC50 (second compound 0.1 µM) was > 10 µM and the IC50 (second compound 0.316 µM) was > 10 µM. For the same compound, the IC50 (second compound 1 µM) was > 10 µM, the IC50 (second compound 3.16 µM) was > 10 µM and the IC50 (second compound 10 µM) was > 10 µM. The viability, T/C [1] was 104%, the viability, T/C [2] was 104% and the viability, T/C [3] was 98.2%. For the same compound, the viability, T/C [4] was 95.8%, the viability, T/C [5] was 88.7% and the viability, T/C [6] was 106%. For the same compound, the viability, T/C [7] was 104%, the viability, T/C [8] was 97.1% and the viability, T/C [9] was 100%. For the same compound, the viability, T/C [10] was 92.6%, the viability, T/C [11] was 95.5% and the viability, T/C [12] was 96.3%. The viability, T/C [13] was 92.6%, the viability, T/C [14] was 105% and the viability, T/C [15] was 99.8%. The viability, T/C [16] was 98%, the viability, T/C [17] was 105% and the viability, T/C [18] was 104%. It also gave a viability, T/C [19] of 128%, a viability, T/C [20] of 85.8% and a viability, T/C [21] of 98.2%. It also gave a viability, T/C [22] of 98.3%, a viability, T/C [23] of 97% and a viability, T/C [24] of 108%. For the same compound, the viability, T/C [25] was 127%, the viability, T/C [26] was 89.3% and the viability, T/C [27] was 98.2%. For the same compound, the viability, T/C [28] was 105%, the viability, T/C [29] was 99.9% and the viability, T/C [30] was 113%. It also gave a viability, T/C [31] of 90.9%, a viability, T/C [32] of 101% and a viability, T/C [33] of 109%. For the same compound, the viability, T/C [34] was 92.2%, the viability, T/C [35] was 98.8% and the viability, T/C [36] was 99.9%.
For Cn1ncnc1[C@H]1c2n[nH]c(=O)c3cc(F)cc(c23)N[C@@H]1c1ccc(F)cc1 + Cc1[nH]c2ccc(F)cc2c1-c1nc2c3cccnc3c3ncccc3c2[nH]1, the IC50 (second compound 0.0316 µM) was > 0.316 µM, the IC50 (second compound 0.1 µM) was > 0.316 µM and the IC50 (second compound 0.316 µM) was > 0.316 µM. The IC50 (second compound 1 µM) was > 0.316 µM, the IC50 (second compound 3.16 µM) was > 0.316 µM and the IC50 (second compound 10 µM) was > 0.316 µM. It also gave a viability, T/C [37] of 112%, a viability, T/C [38] of 99.2% and a viability, T/C [39] of 94.8%. The viability, T/C [1] was 94.2%, the viability, T/C [40] was 98.1% and the viability, T/C [3] was 89.3%. The viability, T/C [41] was 93.5%, the viability, T/C [42] was 98.2% and the viability, T/C [43] was 101%. For the same compound, the viability, T/C [7] was 91.7%, the viability, T/C [44] was 84.5% and the viability, T/C [9] was 95.6%. For the same compound, the viability, T/C [45] was 86.3%, the viability, T/C [46] was 93.1% and the viability, T/C [47] was 96.7%. The viability, T/C [13] was 103%, the viability, T/C [48] was 91.7% and the viability, T/C [15] was 88.7%. It also gave a viability, T/C [49] of 85.5%, a viability, T/C [50] of 101% and a viability, T/C [51] of 98.4%. It also gave a viability, T/C [19] of 102%, a viability, T/C [52] of 102% and a viability, T/C [21] of 89.6%. The viability, T/C [53] was 103%, the viability, T/C [54] was 97.7% and the viability, T/C [55] was 113%. It also gave a viability, T/C [25] of 104%, a viability, T/C [56] of 87.5% and a viability, T/C [27] of 95%. It also gave a viability, T/C [57] of 105%, a viability, T/C [58] of 103% and a viability, T/C [59] of 101%. It also gave a viability, T/C [31] of 107%, a viability, T/C [60] of 82.1% and a viability, T/C [33] of 86.4%.
